In one data set the test system is NCI-H460 cells. The experiment in a line: In-vitro cell proliferation assay in NCI-H460 cancer cell line (MTT). Format: cell-based, human. The settings on record: for inhibition at 10 µM: NCI-H460, 10 μM; for IC50: read-out: NCI-H460 Cell line assay G1 50 nM. The procedure: Growth inhibition assays were carried out using 10% FBS supplemented media. Cells were seeded at a concentration of 5000 cells/well in a 96-well plate. Test compound at a concentration range from 0.01 to 10000 nM were added after 24 h. Growth was assessed using the 3-[4,5-dimethylthiazol-2-yl]-2,5-diphenyltetrazolium bromide (MTT) dye reduction test at 0 h (prior to the addition of the test compound) and 48 h after the addition of test compound. Absorbance was read on a Fluostar Optima (BMG Labtech, Germany) at a wave length of 450 nm. Data were analysed using GraphPad Prism. IC-50 for each compound was determined based on the % inhibition due to the test compound compared to the control.
For methods of cell proliferation assay, see, for example, Mosmann. T., Journal of Immunological Methods, 65(1-2), 55-63, (1983).
The effect of CRAC and/or STIM protein on the proliferation and viability of lung cancer cells was determined as follows.
For Methodology Refer 1C.

In data set [1] the target is T1, CRAC channels (Homo sapiens (Human), UniProt Q96D31). The experiment in a line: In-vitro CRAC channel inhibition assay in Jurkat cells (thapsigargin-induced calcium influx). It is filed as cell-based. The method, then: Inhibition of CRAC channels was determined following thapsigargin (Sigma, Cat # T9033) induced endoplasmic calcium release in Jurkat cells. (see Yasurio Yonetoky et. al Bio. & Med. Chem. 14 (2006) 4750-4760). Cells were centrifuged and resuspended in equal volumes ° f Ca^2+ and Mg^2+ free Hanks buffer and Fluo-8 NW dye (ABD Bioquest, Inc., Sunnyvale, Calif.) loading solution at 2×10^5 cells/100 μl/well in 96-well black plate. Plate is incubated at 37° C./5% CO2 for 30 mM followed by further 15 mM incubation at room temperature. Test compounds (DMSO stocks diluted in Ca^2+ and Mg^2+ free Hanks buffer) at desired concentrations were added to the wells and incubated for […]. Thapsigargin (1 μM final concentration) was added to the wells and incubated for 15 min to inhibit the Sarco-endoplasmic reticulum Ca^2+ ATPase pump thereby depleting endoplasmic calcium and raising cytosolic calcium concentrations. Store-operated calcium entry was initiated by adding extracellular Ca^2+ to a final concentration of 1.8 mM. Fluorescence was monitored over […] on a plate reader (BMG Labtech., Germany) with excitation at 485 nm and an emission wavelength at 520 nm. Data were analyzed using GraphPad Prism. IC50 for each compound was determined based on the percent inhibition of thapsigargin-induced calcium influx into cells.
T1 sequence (Q96D31 whole entry): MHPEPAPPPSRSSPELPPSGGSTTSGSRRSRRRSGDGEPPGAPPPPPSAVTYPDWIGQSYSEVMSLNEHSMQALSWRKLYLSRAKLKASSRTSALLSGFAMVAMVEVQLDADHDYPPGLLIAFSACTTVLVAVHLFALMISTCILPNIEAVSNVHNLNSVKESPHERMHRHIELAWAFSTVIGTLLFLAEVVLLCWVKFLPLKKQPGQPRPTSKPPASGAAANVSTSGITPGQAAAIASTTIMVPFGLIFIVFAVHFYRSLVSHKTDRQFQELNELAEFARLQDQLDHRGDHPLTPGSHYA

For data set [2], the target named is T1, CRAC channels. The experiment in a line: In-vitro CRAC channel inhibition assay in NCI-H460 cancer cell line (thapsigargin-induced calcium influx). The following applies: NCI-H460 cells; for IC50: read-out: NCI-H460 Cell Ca assay IC 50 nM; for inhibition at 1 µM: read-out: NCI-H460 Cell Ca assay % inhibition @ 1 μM. Format: cell-based. The procedure: Inhibition of CRAC channels was determined following thapsigargin (Sigma, Cat # T9033) induced endoplasmic calcium release in NCI-H460 cells (National Centre For Cell Science (NCCS), Pune).
Cells (30,000 per well) were plated overnight in complete RPMI medium. Medium was substituted with Ca^2+ and Mg^2+ free Hanks buffer and Fluo-8 NW dye (ABD Bioquest, Inc., Sunnyvale, Calif.) loading solution in 96-well black plate. Plate was incubated at 37° C./5% CO2 for 30 min followed by further 15 mM incubation at room temperature. Test compounds (DMSO stocks diluted in Ca^2+ and Mg^2+ free Hanks buffer) at desired concentrations were added to the wells and incubated for 15 min. Thapsigargin (1 μM final concentration) was added to the wells and incubated for 15 min to inhibit the Sarco-endoplasmic reticulum Ca^2+ ATPase pump thereby depleting endoplasmic calcium and raising cytosolic calcium concentrations. Store-operated calcium entry was initiated by adding extracellular Ca^2+ to a final concentration of 2.5 mM. Fluorescence was monitored over 30 mM on a plate reader (BMG Labtech., Germany) with excitation at 485 nm and an emission wavelength at 520 nm. Data were analyzed using GraphPad Prism. IC50 for each compound was determined based on the percent inhibition of Thapsigargin-induced calcium influx into cells.
For Methodology Refer 1B.

Data set [3] can be described thus: Body weight in the NCI-H460 xenograft study. Format: in vivo. The settings on record: Balb/c nude mice.
Data set [4] has as its system NCI-H460 human non-small cell lung cancer xenografts. The experiment in a line: Anti-tumor efficacy in female Balb/c nude mice bearing NCI-H460 xenografts. Format: in vivo.
Another data set deals with IL-2. The experiment in a line: Inhibition of IL-2 release in human whole blood. Format: cell-based. The following applies: Concanavalin A + PMA, 20 h, read-out: IC 50 Human Whole Blood IL-2. The method, then:
(§1) Inhibition of cytokine IL-2, IL-4, IL-5 and TNF α was determined as described below.
(§2) Freshly collected HWB was diluted with RPMI medium (1:4.5) and added to a 96-well plate. Wells were incubated with desired concentrations of the inhibitor for 15 min. Cytokine release was induced by the addition of Concanavalin A (25 μg/ml)+Phorbol Myristate Acetate (50 ng/ml) for IL-2 & TNFα or with Phytohemagglutinin (5 μg/ml) for IL-4 & IL-5 and incubated at 37° C. in an atmosphere containing […]. Supernatant was collected after 20 h (IL-2 & TNFα) or 48 h (IL-4 & IL-5) for estimation of cytokines by ELISA. Data were analysed using GraphPad Prism. IC50 values for each compound were determined based on the percent inhibition due to the test compound compared to the control.

Another data set relates to TNFα. The experiment in a line: Inhibition of TNFα release in human whole blood. Format: cell-based. The following applies: Concanavalin A + PMA, 20 h, read-out: IC 50 Human Whole Blood TNFα. The procedure: as §1, §2
Data set [5] concerns CRAC channels over the voltage operated channels (VOC). The settings on record: Yonetoky et al.; cited from earlier work.
Where [6] appears, read: 30 mg/kg orally BID for 15 days.

These results are taken from patent US8993612B2, “Modulators of calcium release-activated calcium channel and methods for treatment of non-small cell lung cancer” (Rhizen Pharmaceuticals SA, priority 2009, dated 2015).

Structures can show the parent of a compound that is named as a salt. Where two headings read alike, the source gives them in different places. Where only a bound is given, the exact number is not on record here.

Consider `O=C(Cc1ccc2ncccc2c1)Nc1ccc(-n2nc(C(F)(F)F)cc2C2CC2)nc1` [Example 34, N-{6-[5-cyclopropyl-3-(trifluoromethyl)-1H-pyrazol-1-yl]pyridin-3-yl}-2-(quinolin-6-yl)acetamide hydrochloride], for which at 10 µM the inhibition in the data set on NCI-H460 cells (Homo sapiens, 48 h) was 82.7%. For the same molecule, the IC50 in the data set with NCI-H460 cells (Homo sapiens, NCI-H460, 48 h) worked out at 628 nM. For the same molecule, the inhibition (commonly the change of the read-out against control, counted positive when it falls) at 1 µM on CRAC channels [1] (1 uM) was determined as 51.2%.
With `O=C(Cc1ccc2ncccc2c1)Nc1ccc(-n2nc(C3CC3)cc2C2CC2)c(F)c1` [Example 12, N-[4-(3,5-dicyclopropyl-1H-pyrazol-1-yl)-3-fluorophenyl]-2-(quinolin-6-yl)acetamide Hydrochloride], the inhibition at 10 µM in the data set on NCI-H460 cells (Homo sapiens, 48 h) stood at 90%. The IC50 in the data set with NCI-H460 cells (Homo sapiens, NCI-H460, 48 h) was 100 nM; at CRAC channels [1], 263 nM. Moreover, the inhibition at 1 µM at CRAC channels [1] (1 uM) was found to be 100%.
Regarding `O=C(Cn1cnc2ccccc21)Nc1ccc(-n2nc(C3CC3)cc2C2CC2)cc1` [Example 5, 2-(1H-benzo[d]imidazol-1-yl)-N-[4-(3,5-dicyclopropyl-1H-pyrazol-1-yl)phenyl]acetamide], the IC50 in the data set on NCI-H460 cells (Homo sapiens, NCI-H460, 48 h) stood at 177 nM; at CRAC channels [2], 79.9 nM; at CRAC channels [1], 383 nM. Moreover, at CRAC channels [1] (1 uM), the inhibition at 1 µM came out at 88.5%.
Turning to `O=C(Nc1ccc(-n2nc(C(F)(F)F)cc2C2CC2)cc1)c1ccc2ncccc2c1` [Example 17, N-{4-[5-cyclopropyl-3-(trifluoromethyl)-1H-pyrazol-1-yl]phenyl}quinoline-6-carboxamide hydrochloride], the IC50 in the data set on NCI-H460 cells (Homo sapiens, NCI-H460, 48 h) turned out to be 710 nM. The figures for the inhibition at 1 µM on CRAC channels [2] and at CRAC channels [1] (1 uM) were 100% and 94%, respectively.
As to `O=C(Cn1cnc2ccccc21)Nc1ccc(-n2nc(C(F)(F)F)cc2C2CC2)cc1` [Example 19, 2-(1H-benzo[d]imidazol-1-yl)-N-{4-[5-cyclopropyl-3-(trifluoromethyl)-1H-pyrazol-1-yl]phenyl}acetamide], the IC50 is 148 nM in the data set on NCI-H460 cells (48 h); < 200 nM with NCI-H460 cells (Homo sapiens, NCI-H460, 48 h); < 200 nM on CRAC channels [2]. Besides, the inhibition at 1 µM in the data set with NCI-H460 cells (Homo sapiens, NCI-H460, 1 uM, 48 h) was found to be 100%; at CRAC channels [2] it was 100%; on CRAC channels [1] (1 uM), 69.5%. The inhibition at 10 µM in the data set on NCI-H460 cells (Homo sapiens, 48 h) worked out at 83.6%. Besides, the “change in body weight” value in data set [3] (setting [6]) is listed as “without any significant change”. In data set [4] (setting [6]), the “reduction in tumor growth” value was 32%.
Turning to `O=C(Nc1ccc(-n2nc(C(F)(F)F)cc2C2CC2)c(F)c1)c1ccc2nn[nH]c2c1` [Example 29, N-{4-[5-cyclopropyl-3-(trifluoromethyl)-1H-pyrazol-1-yl]-3-fluorophenyl}-1H-benzo[d][1,2,3]triazole-6-carboxamide], the inhibition at 10 µM in the data set with NCI-H460 cells (Homo sapiens, 48 h) is 100%. For the same molecule, in the data set on NCI-H460 cells (Homo sapiens, NCI-H460, 48 h), the IC50 came out at 1520 nM. For the same molecule, the inhibition at 1 µM at CRAC channels [1] (1 uM) turned out to be 81.1%.
In the case of `O=C(Nc1ccc(-n2nc(C3CC3)cc2C2CC2)cc1)c1ccc2nccnc2c1` [Example 4, N-[4-(3,5-dicyclopropyl-1H-pyrazol-1-yl)phenyl]quinoxaline-6-carboxamide], in the data set with NCI-H460 cells (Homo sapiens, 48 h), the inhibition at 10 µM was found to be 41%. For the same molecule, the inhibition at 1 µM at CRAC channels [2] came to 80.7%; on CRAC channels [1] (1 uM), 85%.
On to `O=C(Cc1ccc2ncccc2c1)Nc1ccc(-n2nc(C(F)(F)F)cc2C2CC2)cc1` [Example 27, N-{4-[5-cyclopropyl-3-(trifluoromethyl)-1H-pyrazol-1-yl]phenyl}-2-(quinolin-6-yl)acetamide Hydrochloride], for which the IC50 turned out to be 125 nM in the data set on IL-2; 358 nM in the data set on NCI-H460 cells (Homo sapiens, NCI-H460, 48 h); 118 nM in the data set on TNFα. In addition, the inhibition at 1 µM came to 98.1% at CRAC channels [2] and 100% at CRAC channels [1] (1 uM).
With `Cc1nnsc1C(=O)Nc1ccc(-n2nc(C(F)(F)F)cc2C(F)(F)F)cc1` [YM-58483], in data set [5], the “selective index for CRAC channels over VOC” value is 31.
On to `O=C(Nc1ccc(-n2nc(C3CC3)cc2C2CC2)cc1)c1ccc2nn[nH]c2c1` [Example 2, N-[4-(3,5-dicyclopropyl-1H-pyrazol-1-yl)phenyl]-1H-benzo[d][1,2,3]triazole-6-carboxamide], for which the IC50 in the data set with IL-2 is 102 nM; in the data set with TNFα, 148 nM; at CRAC channels [1] it was 182 nM. In the data set with NCI-H460 cells (Homo sapiens, 48 h), testing at 10 µM gave an inhibition of 34%. Further, the inhibition at 1 µM amounted to 91.1% at CRAC channels [2] and 78% on CRAC channels [1] (1 uM).
In turn, `Nc1ncnc2c1ncn2CC(=O)Nc1ccc(-n2nc(C(F)(F)F)cc2C2CC2)cc1` [Example 24, 2-(6-amino-9H-purin-9-yl)-N-{4-[5-cyclopropyl-3-(trifluoromethyl)-1H-pyrazol-1-yl]phenyl}acetamide] registered an inhibition at 10 µM in the data set with NCI-H460 cells (Homo sapiens, 48 h) of 84.4%. Further, the inhibition at 1 µM at CRAC channels [1] (1 uM) is 14.8%.
Consider `O=C(Cn1nnc2ccccc21)Nc1ccc(-n2nc(C3CC3)cc2C2CC2)cc1` [Example 6, 2-(1H-benzo[d][1,2,3]triazol-1-yl)-N-[4-(3,5-dicyclopropyl-1H-pyrazol-1-yl)phenyl]acetamide], for which the IC50 in the data set with IL-2 stood at 52.2 nM; in the data set with TNFα, 165 nM; at CRAC channels [1], 51.3 nM. For the same molecule, at CRAC channels [1] (1 uM), the inhibition at 1 µM is 94.6%.
For `Cl.O=C(Cc1ccc2ncccc2c1)Nc1ccc(-n2nc(C3CC3)cc2C2CC2)cc1` [Example 10, N-[4-(3,5-dicyclopropyl-1H-pyrazol-1-yl)phenyl]-2-(quinolin-6-yl)acetamide hydrochloride], the IC50 on CRAC channels [2] was found to be 72.7 nM. Further, the “% inhibition (1 uM)” value on CRAC channels [1] (1 uM) was 100%.
Regarding `CC(=O)O[C@H]1C(=O)[C@@]2(C)[C@H]([C@H](OC(=O)c3ccccc3)[C@]3(O)C[C@H](OC(=O)[C@H](O)[C@@H](NC(=O)c4ccccc4)c4ccccc4)C(C)=C1C3(C)C)[C@]1(OC(C)=O)CO[C@@H]1C[C@@H]2O` [taxol, Paclitaxel, reference compound], in data set [3] (intravenous administration), the “change in body weight” value is given as “significant reduction”. Further, in data set [4] (intravenous administration), the “reduction in tumor growth” value is 36%.
As to `O=C(Nc1ccc(-n2nc(C3CC3)cc2C2CC2)cc1)c1ccc2ncccc2c1` [Example 3, N-[4-(3,5-dicyclopropyl-1H-pyrazol-1-yl)phenyl]quinoline-6-carboxamide hydrochloride], in the data set with NCI-H460 cells (Homo sapiens, NCI-H460, 48 h), the IC50 amounted to 261 nM. Besides, the inhibition at 1 µM at CRAC channels [2] and at CRAC channels [1] (1 uM) was 100% in each case.
